We go through three molecules from patent US20230210154A1, “SWEET PROTEIN MUTANTS FROM TRUFFLE” (MYCOTECHNOLOGY, INC., priority 2021, published 2023).

The test system of test [1] is sweet taste. Description: Concentration-response functions for sweet taste (Opertech Bio). It counts as in vivo. As to conditions: for Relative to Sucrose (mM): equivalency to sucrose on a molar basis; for Relative to Sucrose (mg/ml): equivalency to sucrose on a weight basis; for EC50: half-maximal sweet taste response. Here is the method:
Opertech Bio (Philadelphia, Pa.) performed a quantitative characterization of the concentration-dependence of the taste properties of the purified his-tagged mycodulcein (SEQ ID NO:21) obtained from E. coli as described in Example 5 and purified as described in Example 4. The sweet-taste potency and relative efficacy of mycodulcein was compared with sucrose and with other sweeteners thaumatin, rebaudioside A, and aspartame. Control standards were solutions of 200 mM sucrose, 100 mM NaCl, 0.5 mM quinine, and 10 mM citric acid. […] Each data point in the curves for mycodulcein, aspartame, thaumatin, rebaudioside A was calculated as the average across 32 replicates and averaged across 16 replicates for the sucrose curve; error bars are SEM. Points for water and sucrose controls were similarly calculated as the average across 128 and 64 replicates, respectively. Curves were fit by non-linear regression.
The concentrations that elicit half-maximal sweet taste response (EC50s, or potencies) were derived from the nonlinear regression. […] Also provided are the equivalencies to sucrose on a molar basis and on a weight basis.

In test [2] the test system is sweet taste. Kind of test: CATA time intensity of the sweet sensation, trained panel. In kind it is in vivo, human. Here is the method: Evaluation of thaumatin, sucrose, and SEQ ID NO:21 was carried out using a CATA (click all that apply) time intensity of the sweet sensation of named analytes in water at 0.045 mg/ml for proteins and 10% sucrose. Methodology: Time Intensity Technique; Data collection software: EyeQuestion, responses recorded every 2.57 seconds; Scaling Method: a 15-point sweet scale, e.g. score 5=5% sucrose, score 10=10% sucrose; Evaluation Protocol: small volume sip, tilt and spit test. There were 3-6 panelists and 2 replicates. All samples were blinded and presented with randomized 3-digit codes. Training Strategies: An intense training on sweet scale over 6 weeks on 15-point sweet scale to confidently assign sweet values. Due to unique sweet behavioral patterns, it is necessary to train time intensity principles over 3 weeks. Samples were tasted with a stopwatch to note times and help reach a consensus. # of Panelists: 3-6, # of replications: 2. All samples were blinded and presented with randomized 3-digit codes. Statistical analysis: due to the small # of panelists, a statistical analysis cannot be performed.

Setting [3] is: non-linear regression, read-out: EC50 (molar units).

Like-named read-outs stand apart in the source and are kept apart here. Residues, ends and D or L forms follow the SMILES beside them.

As a reminder, the EC50 is the concentration giving half of the maximal effect. On to `COC(=O)[C@H](Cc1ccccc1)NC(=O)[C@@H](N)CC(=O)O` [aspartame] (H-Asp-Phe-OMe), for which the “Relative to Sucrose (mM)” value in the test on sweet taste [1] was found to be 198. The “Relative to Sucrose (mg/ml)” value in the test on sweet taste [1] stood at 231. Besides, the EC50 with sweet taste [1] (setting [3]) was determined as 0.182 mM; in the test with sweet taste [1] (read-out: EC50), 53.2 µg/mL.

Take `OC[C@H]1O[C@@](CO)(O[C@H]2O[C@H](CO)[C@@H](O)[C@H](O)[C@H]2O)[C@@H](O)[C@@H]1O` [sucrose]: in the test with sweet taste [2] (10% sucrose in water), the “time to approach threshold sweetness (Intensity <1)” value is 162 s. Also, the “Relative to Sucrose (mM)” value in the test with sweet taste [1] is 1. The “Relative to Sucrose (mg/ml)” value in the test on sweet taste [1] turned out to be 1. Further, the EC50 stood at 36 mM in the test on sweet taste [1] (setting [3]) and 12300 µg/mL in the test with sweet taste [1] (read-out: EC50).

For the molecule thaumatin, in the test on sweet taste [2] (15 point scale, proteins 0.045 mg/ml in water vs 10% sucrose), the “maximum intensity (Imax) higher than sucrose” value is “approximately 1 point”.
